Data on three molecules can be found in PMC6027359, “NUC041, a Prodrug of the DNA Methytransferase Inhibitor 5-aza-2′,2′-Difluorodeoxycytidine (NUC013), Leads to Tumor Regression in a Model of Non-Small Cell Lung Cancer” (Pharmaceuticals, 2018).

Data set [1] in a line: Pharmacokinetics in mouse whole blood after IM NUC041 in PEG-phospholipid depot (PPD). The following applies: analyte in whole blood, NUC041 3 mg/mouse IM in PPD, mice.
Description: Quantitative determination of NUC013 and NUC041 in quenched mouse whole blood was accomplished using protein precipitation and high-performance liquid chromatography with tandem mass spectrometry detection. Gemcitabine-^13C, ^15N2 “GemC-^13C”, was used as the internal standard. NUC013, NUC041 and GemC-^13C were extracted from 50 µL whole blood using protein precipitation with acetonitrile. Extracts were analyzed by hydrophilic interaction chromatography at 35 °C, using a XBridge™ Amide column (Waters Corp., Milford, MA, USA) under isocratic conditions, with 100 mM ammonium acetate pH 9: ethanol: acetonitrile (25:25:500, v/v/v) as mobile phase A. Column effluents at a constant flow rate of 300 µL/min were analyzed by multiple reaction monitoring (MRM) using a triple quadrupole mass spectrometer in positive-ion mode (AB Sciex 4000 Q Trap, equipped with TurboV IonSpray®) (SCIEX, Framingham, MA, USA).
The calibration curve for each analyte was fitted using weighted (1/x^2) linear regression analysis of the Analyte/IS peak area ratio versus Analyte/IS concentration ratio from 5–5000 ng/mL.
Pharmacokinetic parameters were calculated from mean concentrations of NUC-041 or NUC013 in blood over time for mice using Phoenix® WinNonlin® (Version 6.3; Pharsight, A Certara Company; Cary, NC, USA).
The PEG-phospholipid depot (Latitude Pharmaceuticals, San Diego, CA, USA) comprised of S-100, DSPE-PEG 2000, sesame oil, and alcohol. These four constituents were placed in a vial, warmed to 40 °C until all products dissolved, and the vehicle was then vortexed. Subsequently, the vehicle was filtered through a 0.22 µm syringe filter and NUC041 was added. The formulated product was heated to 40 °C, vortexed, and stored at 2–8 °C.
The subject of another data set is Colon Cancer HCT-116. The data set is described as follows: GI50 in colon cancer HCT-116 cells (CellTiter-Glo). The class given is cell-based, human. The protocol:
(§1) As per methods previously presented, cells were grown in an appropriate medium for the cell line of interest. 96 well plates of each cell line were seeded with 5000 cells per well and left overnight. […] Luminescence was recorded on a Synergy 4.0 (BioTek Instruments, Winooski, VT, USA). Assays were performed in triplicate.
For orientation: ATP-based viability assays read luminescence as a measure of living cells.

A short description of data set [2]: Tolerability studies of NUC041 formulated in PPD. Type of data set: in vivo, mice. The protocol: Administration of 50 µL of PPD vehicle IM led to a weight loss of 10.9% two days following vehicle administration. NUC041 was formulated at a concentration of 60 mg/mL in this vehicle.
The subject of data set [3] is human NSCLC NCI-H460. The data set is described as follows: Tumor histology of NCI-H460 xenografts. The class given is in vivo, NCr-nu/nu mice. From the text: Approximately half of each tumor was fixed in 10% neutral-buffered formalin and the other half was frozen. The fixed neoplasm was trimmed, processed, embedded, and microtomed (approximately 5 µm sections). Tissue sections were mounted on glass slides, stained with hematoxylin and eosin (H&E), and coverslipped. Slides were submitted to a veterinary pathologist for a histopathologic evaluation.

Data set [4] in a line: Pharmacokinetics in mouse whole blood after IV NUC041 in lipid nano-emulsion (LNE). The following applies: analyte in whole blood, NUC041 15 mg/kg IV in LNE vehicle, mice. An excerpt: As per methods previously presented, the lipid nano-emulsion (Latitude Pharmaceuticals, San Diego, CA, USA) contained an oil phase consisting of an injectable oil and lecithin and an aqueous phase comprising a tonicity adjuster, a stabilizer, and water.

Data set [5] has as its system human NSCLC NCI-H460. The data set is described as follows: Human NSCLC NCI-H460 xenograft. The following applies: for mean tumor volume at which ulceration developed: SC 2770; for deaths in group / mice that developed tumor ulceration: NCI-H460 xenograft; for deaths in group: n = 10 per group, NUC041: 0.6 mg group; for mice that developed tumor ulceration: NUC041 both PPD groups, evaluable mice, SC 4 of 10; for Median survival: p = NS.
Description: Survival refers to animals that were not removed from the study by death or per protocol euthanasia.
Mice with tumors in the proper volume range were arbitrarily assigned to groups. Mice received test article as described in the text. Mice were observed daily for mortality and moribundity with weights and the tumor measurements taken twice weekly. Tumor volume was determined using the formula for an ellipsoid sphere: Length × Width^2/2 = Volume (mm^3). The experiments were scheduled to last 60 days from the day of tumor implant.

Data set [6] concerns human colon cancer (LoVo). The data set is described as follows: Mouse xenograft model of human colon cancer (LoVo). Type of data set: in vivo, NCr-nu/nu mice. The procedure: NUC041 in LNE was tested at 30 mg/kg IV for three consecutive days a week for three weeks in a mouse xenograft model of human colon cancer (Lovo) and compared to saline control (SC).
Study initiation began when the required number of mice had tumors of approximately 40 to 75 mm^3. […] Study initiation began when the required number of mice had tumors of approximately 32 to 75 mm^3.
Mice received test article as described in the text. […] Any animal whose weight decreased more than 30% from the weight on the first day of treatment or whose tumor reached 4000 mm^3 in volume, ulcerated, sloughed off, or was moribund was euthanized prior to study termination.
On the technique in general: In xenograft studies the graft and the host belong to different species.

The subject of the next data set is NSCLC NCI-H460. The data set is described as follows: GI50 in NSCLC NCI-H460 cells (CellTiter-Glo). Type of data set: cell-based, human. The protocol:
as §1

Details of data set [7]: method as in PMID 28726739. The note with it: mice; cited from earlier work.
The conditions of data set [8]: continuous infusion over seven days, patients with refractory solid tumors; cited from earlier work.
The mark [9] stands for this setting: IM, mice premedicated with dexamethasone 50 µg IP.
Where [10] appears, read: Mice 2-4 (individual), NUC041 0.6 mg/mouse qod, euthanasia day 34.
[11] abbreviates: Mouse 1, NUC041 2.4/3.0 mg/mouse qwk + dexamethasone, euthanasia day 35.

Several values for one entry are separate records, joined by “and”; a condition that tells them apart may be missing. Equal values may be shown once. Entries after “also recorded” stand apart in the source; their conditions may differ. Read-outs that look alike come from different tables or passages of the source.

For orientation: Cmax means the peak of the concentration-time curve. As a reminder, the MRT is a mean duration of stay, worked out from the concentration-time curve. What is called Tmax is the time from dosing to the highest level. One may read the GI50 as the concentration at which growth is held to half of that of the control. The Vss is the apparent volume that relates the amount in the body to the concentration in plasma or blood. As to “3′,5′-di-trimethylsilyl-2′,2′-difluoro-5-azadeoxycytidine [NUC041]”, in data set [1], the AUCinf worked out at 6261 ng·h/mL, the AUClast came out at 6030 ng·h/mL, the Cmax is 4210 ng/mL and the MRT was found to be 156 min. Moreover, in [1], the T1/2 came to 102 min, the Tmax was determined as 30 min and the Vz/F was found to be 1.172 L/kg. Also, the GI50 with Colon Cancer HCT-116 (72 h exposure) came out at 2800 nM. Besides, in [2] (50 µg IP dexamethasone 30 min prior), the “tolerability of IM injection of 3 mg per mouse” value was “without weight loss or lethality”. Further, the “maximum tolerated dose (MTD)” value in data set [2] (IM qod, no premedication, mice) is given as 0.6 mg/mouse. In addition, in [2] (setting [9]), the MTD is above 3 mg/mouse and the “MTD as mean dose” value is above 123.8 mg/kg. In addition, in the data set with human NSCLC NCI-H460 [3] (setting [10]), the “Tumor Volume” value is 3035 mm^3 and 1960 mm^3 and 936 mm^3; the Ulceration entry is reported as “no ulceration; also recorded: ulceration”. Further, the “Histopathology: necrosis” value with human NSCLC NCI-H460 [3] (Mice 2-4 (individual), NUC041 0.6 mg/mouse qod, euthanasia day 34, in ulcerated tumors excludes area of ulceration) is 50–60% necrosis and 10% necrosis * and 5% necrosis *. For the same molecule, in the data set on human NSCLC NCI-H460 [3] (setting [11]), the “Histopathology: necrosis” value is reported as 30–40% necrosis, the “Tumor Volume” value is given as 2746 mm^3 and the Ulceration entry is “no ulceration”. Besides, in data set [4], the AUCinf amounted to 590.6 ng·h/mL, the AUClast came to 580.4 ng·h/mL, the Cl stood at 423 mL/min/kg and the Cmax was 2803 ng/mL. In [4], this molecule displayed a T1/2 of 11 min and a Vss of 4.431 L/kg. In addition, the time of peak concentration (Tmax) in data set [4] (for NUC041 first sampling time) is listed as 3 min. For the same molecule, the “mean tumor volume at which ulceration developed” value in the data set on human NSCLC NCI-H460 [5] (0.6 mg NUC041 group, p = 0.0068) was determined as 1474 mm^3. In the data set on human NSCLC NCI-H460 [5] (3 mg NUC041 with dexamethasone group, p = 0.0043), the “mean tumor volume at which ulceration developed” value is given as 1319 mm^3. Moreover, in the data set on human NSCLC NCI-H460 [5], the deaths in group entry was “two” and the “mice that developed tumor ulceration” value is reported as 15 of 18. In addition, the Median survival in the data set on human NSCLC NCI-H460 [5] (NUC041 0.6 mg IM qod x 15) worked out at 24.5 days. In addition, in the data set with human NSCLC NCI-H460 [5] (NUC041 0.6 mg group, Mice 3 and 4), the peak tumor volume is 3179 mm^3 and 1913 mm^3. Further, the “regression in tumor volume” value with human NSCLC NCI-H460 [5] (NUC041 0.6 mg group, two individual mice with ulcerated tumors (Mice 3 and 4), day 25 to 32) was 38% and 51%. The Median survival in the data set on human NSCLC NCI-H460 [5] (NUC041 2.4 mg/mouse IM qwk x 3 then 3.0 mg/mouse qwk x 1 with 50 µg dexamethasone IP) was 25.5 days. Also, the “survival benefit vs SC” value in the data set with human NSCLC NCI-H460 [5] (NUC041 in PPD with or without dexamethasone pretreatment) was “no survival benefit”. Also, the “mice with tumor ulcerations, LoVo study” value in [6] (NUC041 administered IV in LNE, SC 3/10) is reported as 2/10. The “efficacy in xenograft model of human colon cancer (LoVo)” value in [6] (NUC041 in LNE 30 mg/kg IV) is reported as “only moderate efficacy”. In addition, the “study days on which growth of LoVo was significantly inhibited compared to SC” value in data set [6] (NUC041 in LNE 30 mg/kg IV, three consecutive days a week for three weeks, p < 0.05) is on record as 27–30 study days. For the same molecule, the 50% growth inhibitory concentration (GI50) in the data set on NSCLC NCI-H460 (72 h exposure) was found to be 1610 nM.

With `Nc1ncn([C@@H]2O[C@H](CO)[C@@H](O)C2(F)F)c(=O)n1` [NUC013, 5-aza-2′,2′-difluorodeoxycytidine], in data set [7], the MTD is listed as above 120 mg/kg. Further, the GI50 in the data set with Colon Cancer HCT-116 (Homo sapiens, HCT-116, 72 h exposure) amounted to 2580 nM; in the data set on NSCLC NCI-H460 (Homo sapiens, NCI-H460, 72 h exposure), 1570 nM. In addition, the deaths in group entry with human NSCLC NCI-H460 [5] was “One”. In the data set with human NSCLC NCI-H460 [5], the “mice that developed tumor ulceration” value is reported as 1 of 10. Further, the “hazard ratio (HR) vs SC” value in the data set with human NSCLC NCI-H460 [5] (NUC013 20 mg/kg IV qd three consecutive days per week x 4, p = 0.0018, Log rank test) is on record as 0.14.

For `Nc1ncn([C@H]2C[C@H](O)[C@@H](CO)O2)c(=O)n1` [decitabine], in data set [8], the MTD is given as 2 mg/m^2 qd and the “main dose limiting toxicity” value is listed as “neutropenia”.
